Reference: patent publication US20230265151A1, “GIP/GLP1 CO-AGONIST COMPOUNDS” (priority 2020, published 2023)
Like-named read-outs stand apart in the source and are kept apart here. *1 amine or outer side, *2 acyl side, *3 side chain or, on linkers, in order; H or OH if unused. Where a SMILES comes first, the peptide text is derived from it. Side-chain parts run from the residue outwards. [ ]: non-standard residue; d: D form. The star is where a group is joined. Decanoyl(10-(4-HOOC-PhO)) = O=C(O)c1ccc(OCCCCCCCCCC(=O)*)cc1; αMePhe(2-F) = C[C@](N)(Cc1ccccc1F)C(=O)O; γGlu = O=C(O)[C@H](CCC(=O)[*:2])N[*:1]; αMeY = C[C@](N)(Cc1ccc(O)cc1)C(=O)O; αMeL = CC(C)C[C@](C)(N)C(=O)O; Orn = NCCC[C@H](N)C(=O)O; AEEA = NCCOCCOCC(=O)O; Aib = CC(C)(N)C(=O)O

Experiments:
Format in all cases: cell-based
[1] = target: T1, hGIPR (Homo sapiens, UniProt P48546); assay: Functional cAMP formation (HTRF) in HEK-293 clonal cells expressing hGIPR, 0.1% bovine casein, without or with 1.0% human serum albumin; conditions: for EC50: cAMP, 0.1% bovine casein (no human serum albumin), geometric mean
T1 construct: expressed in transfected cells
T1 sequence (P48546 22-466): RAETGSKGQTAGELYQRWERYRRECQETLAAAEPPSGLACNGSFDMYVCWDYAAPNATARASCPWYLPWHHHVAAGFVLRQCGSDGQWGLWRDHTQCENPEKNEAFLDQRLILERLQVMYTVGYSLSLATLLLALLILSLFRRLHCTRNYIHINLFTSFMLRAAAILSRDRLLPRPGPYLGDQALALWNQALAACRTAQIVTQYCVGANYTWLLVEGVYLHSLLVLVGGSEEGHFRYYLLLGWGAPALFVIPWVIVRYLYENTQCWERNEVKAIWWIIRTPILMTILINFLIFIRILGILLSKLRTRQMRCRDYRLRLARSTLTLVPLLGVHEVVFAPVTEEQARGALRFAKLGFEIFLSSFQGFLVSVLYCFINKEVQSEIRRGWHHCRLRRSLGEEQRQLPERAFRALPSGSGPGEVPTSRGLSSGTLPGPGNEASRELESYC
Method in brief: (§1)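 Readings of the HTRF 665/620 nm ratio, which falls as cAMP rises, were converted to nM cAMP using a standard curve after 30 min peptide exposure at 37° C.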

[2] = target: T2, hGCGR (Homo sapiens, UniProt P47871); assay: Functional cAMP formation (HTRF) in HEK-293 clonal cells expressing hGCGR, 0.1% bovine casein, without or with 1.0% human serum albumin
T2 construct: expressed in transfected cells
Method in brief: as §1

[3] = target: hGLP-1R (Homo sapiens, UniProt P43220); assay: Functional cAMP formation (HTRF) in HEK-293 clonal cells expressing hGLP-1R, 0.1% bovine casein, without or with 1.0% human serum albumin; set-up: expressed in transfected cells
Method in brief: as §1

[4] = HEK293, percent of maximal response to GIP(1-42)NH2, 37° C., 0.1% bovine casein, arithmetic mean, read-out: hGIPR Emax, % ± SEM
[5] = cAMP, incubated at 37° C., 0.1% bovine casein (no human serum albumin), geometric mean, read-out: hGCGR EC50, nM (SEM, n)
[6] = HEK293, percent of maximal response to GLP-1(7-36)NH2, 37° C., 0.1% bovine casein, arithmetic mean, read-out: hGLP-1R Emax, % ± SEM

T2 sequence (P47871 26-477): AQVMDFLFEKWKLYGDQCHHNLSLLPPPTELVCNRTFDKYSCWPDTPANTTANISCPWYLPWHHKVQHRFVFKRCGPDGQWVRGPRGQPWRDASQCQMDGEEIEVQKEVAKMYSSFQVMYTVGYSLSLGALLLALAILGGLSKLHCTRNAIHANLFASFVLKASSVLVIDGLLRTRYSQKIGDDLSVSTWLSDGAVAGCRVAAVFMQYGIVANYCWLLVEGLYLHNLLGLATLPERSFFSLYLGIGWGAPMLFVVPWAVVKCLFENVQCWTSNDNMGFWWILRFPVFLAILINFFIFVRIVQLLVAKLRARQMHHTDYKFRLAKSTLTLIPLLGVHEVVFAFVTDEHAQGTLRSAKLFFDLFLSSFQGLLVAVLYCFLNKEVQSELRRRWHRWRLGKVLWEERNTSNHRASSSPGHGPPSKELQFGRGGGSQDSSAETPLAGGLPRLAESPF
Chain of hGLP-1R (P43220 24-463): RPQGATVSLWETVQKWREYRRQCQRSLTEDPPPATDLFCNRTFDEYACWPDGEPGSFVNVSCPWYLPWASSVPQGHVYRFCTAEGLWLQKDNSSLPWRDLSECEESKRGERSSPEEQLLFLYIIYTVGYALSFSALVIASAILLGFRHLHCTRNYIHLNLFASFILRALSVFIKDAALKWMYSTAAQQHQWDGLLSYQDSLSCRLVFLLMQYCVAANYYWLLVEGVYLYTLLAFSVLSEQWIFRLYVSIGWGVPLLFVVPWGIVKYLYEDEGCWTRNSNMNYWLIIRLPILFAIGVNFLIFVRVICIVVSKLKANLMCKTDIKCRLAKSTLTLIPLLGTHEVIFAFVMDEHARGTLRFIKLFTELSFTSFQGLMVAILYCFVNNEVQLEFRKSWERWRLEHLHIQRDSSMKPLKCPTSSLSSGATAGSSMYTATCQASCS

CC[C@H](C)[C@H](NC(=O)[C@H](CCCN)NC(=O)[C@H](CC(=O)O)NC(=O)[C@H](CC(C)C)NC(=O)[C@](C)(CC(C)C)NC(=O)[C@@H](NC(=O)[C@H](CO)NC(=O)[C@H](Cc1ccc(OC)cc1)NC(=O)[C@H](CC(=O)O)NC(=O)[C@H](CO)NC(=O)[C@@H](NC(=O)[C@](C)(Cc1ccccc1F)NC(=O)[C@@H](NC(=O)CNC(=O)[C@H](CCC(=O)O)NC(=O)C(C)(C)NC(=O)[C@@H](N)Cc1ccc(O)cc1)[C@@H](C)O)[C@@H](C)O)[C@@H](C)CC)C(=O)N[C@@H](C)C(=O)N[C@@H](CCC(N)=O)C(=O)NC(C)(C)C(=O)N[C@@H](CCC(=O)O)C(=O)N[C@@H](Cc1ccccc1)C(=O)N[C@H](C(=O)N[C@@H](CCCCNC(=O)COCCOCCNC(=O)COCCOCCNC(=O)CC[C@H](NC(=O)CCCCCCCCCOc1ccc(C(=O)O)cc1)C(=O)O)C(=O)N[C@@](C)(Cc1ccc(O)cc1)C(=O)N[C@@H](CC(C)C)C(=O)N[C@H](C(=O)N[C@@H](CCCCNC(=O)COCCOCCNC(=O)COCCOCCNC(=O)CC[C@H](NC(=O)CCCCCCCCCOc1ccc(C(=O)O)cc1)C(=O)O)C(=O)NCC(=O)NCC(=O)N1CCC[C@H]1C(=O)N[C@@H](CO)C(=O)N[C@@H](CO)C(=O)NCC(=O)N[C@@H](C)C(=O)N1CCC[C@H]1C(=O)N1CCC[C@H]1C(=O)N1CCC[C@H]1C(=O)N[C@@H](CO)C(N)=O)[C@@H](C)CC)[C@@H](C)CC [Example 279] (H-Y[Aib]EGT[αMePhe(2-F)]TSDY(Me)SI[αMeL]LD[Orn]IAQ[Aib]EFIK([AEEA-AEEA-γGlu-Decanoyl(10-(4-HOOC-PhO))])[αMeY]LIK([AEEA-AEEA-γGlu-Decanoyl(10-(4-HOOC-PhO))])GGPSSGAPPPS-NH2)
Emax ([1]; HEK293, read-out: hGIPR Emax, % ± SEM, 0.1% bovine casein and 1.0% human serum albumin, 37° C., percent of maximal response to GIP(1-42)NH2): 88.6% | EC50 ([1]; hGIPR EC50, nM (SEM, n), 37° C.): 0.0305 nM | EC50 ([2]; hGCGR EC50, nM (SEM, n), 0.1% bovine casein and 1.0% human serum albumin, 37° C., geometric mean): > 9950 nM | EC50 ([2]; hGCGR EC50, nM (SEM, n), cAMP, 37° C., 0.1% bovine casein (no human serum albumin), geometric mean): > 9950 nM | Emax ([3]; HEK293, read-out: hGLP-1R Emax, % ± SEM, 0.1% bovine casein and 1.0% human serum albumin, 37° C., percent of maximal response to GLP-1(7-36)NH2): 114% | Emax ([3]; HEK293, read-out: hGLP-1R Emax, % ± SEM, cAMP, 37° C., 0.1% bovine casein, percent of maximal response to GLP-1(7-36)NH2, arithmetic mean): 112% | EC50 ([3]; hGLP-1R EC50, nM (SEM, n), 0.1% bovine casein and 1.0% human serum albumin, 37° C., geometric mean): 36.6 nM | EC50 ([3]; hGLP-1R EC50, nM (SEM, n), cAMP, 37° C., 0.1% bovine casein (no human serum albumin), geometric mean): 0.406 nM

CC[C@H](C)[C@H](NC(=O)[C@H](CC(C)C)NC(=O)[C@](C)(Cc1ccc(O)cc1)NC(=O)[C@@H](CCC(=O)O)NC(=O)[C@@H](NC(=O)[C@H](Cc1ccccc1)NC(=O)[C@H](CCC(=O)O)NC(=O)[C@H](Cc1ccncc1)NC(=O)[C@H](CCC(N)=O)NC(=O)[C@H](C)NC(=O)[C@H](CCCCNC(=O)COCCOCCNC(=O)COCCOCCNC(=O)CC[C@H](NC(=O)CCCCCCCCCCCCC(=O)O)C(=O)O)NC(=O)[C@H](CCCN)NC(=O)[C@H](CC(=O)O)NC(=O)[C@H](CC(C)C)NC(=O)[C@](C)(CC(C)C)NC(=O)[C@@H](NC(=O)[C@H](CO)NC(=O)[C@H](Cc1ccncc1)NC(=O)[C@H](CC(=O)O)NC(=O)[C@H](CO)NC(=O)[C@@H](NC(=O)[C@](C)(Cc1ccccc1F)NC(=O)[C@@H](NC(=O)CNC(=O)[C@H](CCC(=O)O)NC(=O)C(C)(C)NC(=O)[C@@H](N)Cc1ccc(O)cc1)[C@@H](C)O)[C@@H](C)O)[C@@H](C)CC)[C@@H](C)CC)C(=O)N[C@@H](CCC(=O)O)C(=O)NCC(=O)NCC(=O)N[C@@H](CCCCNC(=O)COCCOCCNC(=O)COCCOCCNC(=O)CC[C@H](NC(=O)CCCCCCCCCCCCC(=O)O)C(=O)O)C(=O)N[C@@H](CO)C(=O)N[C@@H](CO)C(=O)NCC(=O)N[C@@H](C)C(=O)N1CCC[C@H]1C(=O)N1CCC[C@H]1C(=O)N1CCC[C@H]1C(=O)N[C@@H](CO)C(N)=O [Example 156]
Emax [1, 4]: 89.9% | EC50 [2, 5]: > 9950 nM | Emax [3, 6]: 110%

CCCCCCCCCCCC(=O)N[C@@H](CCC(=O)NCCOCCOCC(=O)NCCCC[C@H](NC(=O)[C@H](CCCN)NC(=O)[C@H](CC(=O)O)NC(=O)[C@H](CC(C)C)NC(=O)[C@](C)(CC(C)C)NC(=O)[C@@H](NC(=O)C(C)(C)NC(=O)[C@H](Cc1ccncc1)NC(=O)[C@H](CC(=O)O)NC(=O)[C@H](CO)NC(=O)[C@@H](NC(=O)[C@](C)(Cc1ccccc1F)NC(=O)[C@@H](NC(=O)CNC(=O)[C@H](CCC(=O)O)NC(=O)C(C)(C)NC(=O)[C@@H](N)Cc1ccc(O)cc1)[C@@H](C)O)[C@@H](C)O)[C@@H](C)CC)C(=O)N[C@@H](C)C(=O)N[C@@H](CCC(N)=O)C(=O)NC(C)(C)C(=O)N[C@@H](CCC(=O)O)C(=O)N[C@@H](Cc1ccccc1)C(=O)N[C@H](C(=O)N[C@H](CCC(=O)O)C(=O)N[C@@](C)(Cc1ccc(O)cc1)C(=O)N[C@@H](CC(C)C)C(=O)N[C@H](C(=O)N[C@@H](CCCCNC(=O)COCCOCCNC(=O)CC[C@H](NC(=O)CCCCCCCCCCC)C(=O)O)C(=O)NCC(=O)NCC(=O)N1CCC[C@H]1C(=O)N[C@@H](CO)C(=O)N[C@@H](CO)C(=O)NCC(=O)N[C@@H](C)C(=O)N1CCC[C@H]1C(=O)N1CCC[C@H]1C(=O)N1CCC[C@H]1C(=O)N[C@@H](CO)C(N)=O)[C@@H](C)CC)[C@@H](C)CC)C(=O)O [Example 427]
Emax ([1]; HEK293, cAMP, 37° C., 0.1% bovine casein and 1.0% human serum albumin, percent of maximal response to GIP(1-42)NH2, read-out: hGIPR Emax, % ± SEM): 92.4% | Emax ([1]; HEK293, cAMP, 37° C., 0.1% bovine casein, percent of maximal response to GIP(1-42)NH2, arithmetic mean, read-out: hGIPR Emax, % ± SEM): 95.9% | EC50 ([1]; 37° C., read-out: hGIPR EC50, nM (SEM, n)): 0.0132 nM | EC50 ([2]; cAMP, 37° C., 0.1% bovine casein (no human serum albumin), geometric mean, read-out: hGCGR EC50, nM (SEM, n)): > 9950 nM | EC50 ([2]; cAMP, 37° C., 0.1% bovine casein and 1.0% human serum albumin, geometric mean (SEM, n), read-out: hGCGR EC50, nM (SEM, n)): > 9950 nM | Emax ([3]; HEK293, cAMP, 37° C., 0.1% bovine casein and 1.0% human serum albumin, percent of maximal response to GLP-1(7-36)NH2, read-out: hGLP-1R Emax, % ± SEM): 109% | Emax ([3]; HEK293, cAMP, 37° C., 0.1% bovine casein, percent of maximal response to GLP-1(7-36)NH2, arithmetic mean, read-out: hGLP-1R Emax, % ± SEM): 109% | EC50 ([3]; cAMP, 37° C., 0.1% bovine casein (no human serum albumin), geometric mean, read-out: hGLP-1R EC50, nM (SEM, n)): 0.206 nM | EC50 ([3]; cAMP, 37° C., 0.1% bovine casein and 1.0% human serum albumin, geometric mean (SEM, n), read-out: hGLP-1R EC50, nM (SEM, n)): 25.1 nM

CC[C@H](C)[C@H](NC(=O)[C@H](CC(C)C)NC(=O)[C@](C)(Cc1ccc(O)cc1)NC(=O)[C@@H](CCC(=O)O)NC(=O)[C@@H](NC(=O)[C@H](Cc1ccccc1)NC(=O)[C@H](CCCCNC(=O)COCCOCCNC(=O)COCCOCCNC(=O)COCCOCCNC(=O)CC[C@H](NC(=O)CCCCCCCCCCCCC(=O)O)C(=O)O)NC(=O)C(C)(C)NC(=O)[C@H](CCC(N)=O)NC(=O)[C@H](C)NC(=O)[C@H](CCCCNC(=O)COCCOCCNC(=O)COCCOCCNC(=O)COCCOCCNC(=O)CC[C@H](NC(=O)CCCCCCCCCCCCC(=O)O)C(=O)O)NC(=O)[C@H](CCCN)NC(=O)[C@H](CC(=O)O)NC(=O)[C@H](CC(C)C)NC(=O)[C@](C)(CC(C)C)NC(=O)[C@@H](NC(=O)[C@H](CO)NC(=O)[C@H](Cc1ccncc1)NC(=O)[C@H](CC(=O)O)NC(=O)[C@H](CO)NC(=O)[C@@H](NC(=O)[C@](C)(Cc1ccccc1F)NC(=O)[C@@H](NC(=O)CNC(=O)[C@H](CCC(=O)O)NC(=O)C(C)(C)NC(=O)[C@@H](N)Cc1ccc(O)cc1)[C@@H](C)O)[C@@H](C)O)[C@@H](C)CC)[C@@H](C)CC)C(=O)N[C@@H](CCC(=O)O)C(=O)NCC(=O)NCC(=O)N1CCC[C@H]1C(=O)N[C@@H](CO)C(=O)N[C@@H](CO)C(=O)NCC(=O)N[C@@H](C)C(=O)N1CCC[C@H]1C(=O)N1CCC[C@H]1C(=O)N1CCC[C@H]1C(=O)N[C@@H](CO)C(N)=O [Example 77]
Emax [1, 4]: 94.8 ± 2.69% | EC50 ([1]; incubated at 37° C., read-out: hGIPR EC50, nM (SEM, n)): 0.0288 nM | EC50 [2, 5]: > 9950 nM | Emax [3, 6]: 87 ± 1.71% | EC50 ([3]; cAMP, incubated at 37° C., 0.1% bovine casein (no human serum albumin), geometric mean, read-out: hGLP-1R EC50, nM (SEM, n)): 3.03 nM
